The target of assay [1] is T1, Adenosine receptor A3 (Homo sapiens) (UniProt P0DMS8).
T1 sequence (whole entry): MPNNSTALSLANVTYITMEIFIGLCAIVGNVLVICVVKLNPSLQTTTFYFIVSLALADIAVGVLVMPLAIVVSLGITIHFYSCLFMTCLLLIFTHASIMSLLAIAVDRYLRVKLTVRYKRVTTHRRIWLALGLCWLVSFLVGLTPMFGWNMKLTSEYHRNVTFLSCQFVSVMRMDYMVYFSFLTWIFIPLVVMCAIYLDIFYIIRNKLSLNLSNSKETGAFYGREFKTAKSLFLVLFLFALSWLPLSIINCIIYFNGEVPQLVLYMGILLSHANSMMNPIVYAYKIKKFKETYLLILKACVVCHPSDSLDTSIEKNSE
The assay can be described thus: Displacement of [125I]-AB-MECA from human adenosine A3 receptor expressed in CHO cell membranes at 1 uM after 60 mins by scintillation counting method relative to control.

Assay [2] addresses T2, Adenosine receptor A1 (Homo sapiens) (UniProt P30542).
T2 sequence (whole entry): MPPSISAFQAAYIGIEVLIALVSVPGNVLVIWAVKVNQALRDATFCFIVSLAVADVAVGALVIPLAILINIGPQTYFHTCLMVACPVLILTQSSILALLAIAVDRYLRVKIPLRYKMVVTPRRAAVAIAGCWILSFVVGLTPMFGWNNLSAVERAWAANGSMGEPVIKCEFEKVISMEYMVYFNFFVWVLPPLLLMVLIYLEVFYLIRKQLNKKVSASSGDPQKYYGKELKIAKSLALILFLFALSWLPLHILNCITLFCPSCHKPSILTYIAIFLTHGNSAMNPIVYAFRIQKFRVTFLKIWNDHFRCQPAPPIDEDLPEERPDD
The experiment in a line: Displacement of [3H]-DPCPX from human adenosine A1 receptor expressed in CHO cell membranes at 1 uM after 120 mins by scintillation counting method relative to control. In general terms: Displacement assays read how much labelled ligand stays bound in the presence of the test substance.

Assay [3] addresses T3, Adenosine receptor A2a (Homo sapiens, UniProt P29274). The experiment in a line: Displacement of [3H]-ZM241385 from human adenosine A2A receptor expressed in CHO cell membranes after 60 mins by scintillation counting method.
Assay [4] deals with T4, Adenosine receptor A2b (Homo sapiens) (UniProt P29275).
T4 sequence (whole entry): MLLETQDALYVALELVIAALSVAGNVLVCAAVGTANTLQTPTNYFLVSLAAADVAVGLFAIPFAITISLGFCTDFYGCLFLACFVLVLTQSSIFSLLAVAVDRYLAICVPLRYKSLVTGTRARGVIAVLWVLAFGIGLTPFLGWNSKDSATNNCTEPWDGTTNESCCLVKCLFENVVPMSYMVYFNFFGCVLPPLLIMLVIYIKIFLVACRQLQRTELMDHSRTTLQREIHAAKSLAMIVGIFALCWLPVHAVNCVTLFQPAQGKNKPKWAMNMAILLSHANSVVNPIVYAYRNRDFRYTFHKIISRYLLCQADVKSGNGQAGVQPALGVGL
The assay can be described thus: Antagonist activity at human adenosine A2B receptor expressed in CHO cell membranes assessed as inhibition of NECA-stimulated cAMP level at 1 uM preincubated for 10 mins followed by NECA stimulation by scintillation counting method in presence of [3H]-cyclic AMP. It is filed as functional.

For assay [5], the target named is T5, Adenosine receptor A1 (Homo sapiens, UniProt P30542).
T5 sequence (P30542 whole entry): T2 sequence (whole entry)
The experiment in a line: Displacement of [3H]-DPCPX from human adenosine A1 receptor expressed in CHO cell membranes after 120 mins by scintillation counting method.

For assay [6], the target named is T6, Adenosine receptor A3 (Homo sapiens, UniProt P0DMS8).
T6 sequence (P0DMS8 whole entry): T1 sequence (whole entry)
The assay can be described thus: Displacement of [125I]-AB-MECA from human adenosine A3 receptor expressed in CHO cell membranes after 60 mins by scintillation counting method.

Assay [7] has as its target T3, Adenosine receptor A2a. The experiment in a line: Displacement of [3H]-ZM241385 from human adenosine A2A receptor expressed in CHO cell membranes at 1 uM after 60 mins by scintillation counting method relative to control.
The target in assay [8] is T5, Adenosine receptor A1. The assay can be described thus: Antagonist activity at human adenosine A1 receptor expressed in CHO cell membranes assessed as suppression of CCPA-mediated inhibition of cAMP level by scintillation counting method in presence of [3H]-cyclic AMP. The class given is functional. Background: Changes in cAMP serve as a functional read-out for many G protein-coupled receptors.

The species entered for assay [9] is Homo sapiens. The experiment in a line: Selectivity ratio of Ki for human adenosine A1 receptor to Ki for human adenosine A2A receptor.
Assay [10] concerns the target T3, Adenosine receptor A2a. The experiment in a line: Antagonist activity at human adenosine A2A receptor expressed in CHO cell membranes assessed as inhibition of NECA-stimulated cAMP level preincubated for 10 mins followed by NECA stimulation by scintillation counting method in presence of [3H]-cyclic AMP. It is filed as functional.
The target of assay [11] is T7, Adenosine receptor A2b (Homo sapiens, UniProt P29275).
T7 sequence (P29275 whole entry): T4 sequence (whole entry)
The experiment in a line: Antagonist activity at human adenosine A2B receptor expressed in CHO cell membranes assessed as inhibition of NECA-stimulated cAMP level preincubated for 10 mins followed by NECA stimulation by scintillation counting method in presence of [3H]-cyclic AMP. The class given is functional.

T3 sequence (P29274 whole entry): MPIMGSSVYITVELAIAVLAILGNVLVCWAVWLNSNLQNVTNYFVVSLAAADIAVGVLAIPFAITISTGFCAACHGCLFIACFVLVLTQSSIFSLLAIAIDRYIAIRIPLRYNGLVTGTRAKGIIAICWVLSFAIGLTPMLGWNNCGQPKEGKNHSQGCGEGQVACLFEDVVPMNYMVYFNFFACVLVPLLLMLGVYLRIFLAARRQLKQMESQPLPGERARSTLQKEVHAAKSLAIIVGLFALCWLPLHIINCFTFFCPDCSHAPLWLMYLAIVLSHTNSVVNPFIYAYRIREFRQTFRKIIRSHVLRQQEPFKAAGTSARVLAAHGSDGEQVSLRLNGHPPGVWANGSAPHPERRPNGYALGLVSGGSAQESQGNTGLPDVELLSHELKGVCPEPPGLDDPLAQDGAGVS

Regarding `COc1ccccc1-n1cc2nc(-c3ccco3)nc(N)c2n1`, the inhibition worked out at 37% in assay [1], 31% in assay [2] and 12% in assay [4]. This compound also gave a Ki in assay [3] of 362 nM.

Regarding `Cc1ccc(-c2nc(N)c3nn(-c4ccccc4)cc3n2)o1`, the Ki in assay [3] stood at 99 nM; in assay [5] it was 42 nM; in assay [6] it was 147 nM. Moreover, in [4], the inhibition is 32%.

In the case of `Nc1nc(Cc2ccccc2)nc2cn(Cc3ccccc3)nc12`, the inhibition stood at 15% in assay [1], 1% in assay [2], 1% in [4] and 1% in assay [7].

In the case of `Cc1ccc(-c2nc(N)c3nn(Cc4ccccc4)cc3n2)o1`, the IC50 in assay [8] turned out to be 152 nM; in [10], 10.9 nM. Also, the Ratio Ki in assay [9] turned out to be 15. Besides, the Ki is 9.23 nM in assay [3], 136 nM in assay [5] and 269 nM in [6]. Moreover, in [4], the inhibition was determined as 20%.

In the case of `COc1cccc(Cn2cc3nc(-c4ccc(C)o4)nc(N)c3n2)c1`, the values for the IC50 in assay [8], in assay [11] and in assay [10] were 134 nM, 293 nM and 6.42 nM, respectively. Moreover, the Ratio Ki in assay [9] was 22. Besides, the Ki stood at 5.26 nM in [3], 120 nM in [5] and 88 nM in [6].

As to `Nc1nc(Cc2ccccc2)nc2cn(-c3ccccc3O)nc12`, the inhibition in assay [1] came out at 19%; in [4], 1%; in assay [7] it was 21%. Besides, the Ki in assay [5] came out at 52 nM.

As to `Nc1nc(-c2ccco2)nc2cn(CCc3ccccc3)nc12`, the inhibition in assay [1] was found to be 4%; in assay [2] it was 12%; in assay [4], 3%; in assay [7] it was 33%.

For `Nc1nc(-c2ccco2)nc2cn(-c3ccccc3)nc12`, the figures for the inhibition in assay [1] and in assay [4] were 39% and 1%, respectively. For the same compound, the Ki in [3] came to 195 nM; in [5], 206 nM.

Regarding `Cc1nc(N)c2nn(CCc3ccccc3)cc2n1`, the inhibition worked out at 3% in assay [1], 10% in assay [2], 3% in assay [4] and 12% in assay [7].

`Cc1ccc(-c2nc(N)c3nn(Cc4ccccc4Cl)cc3n2)o1`: the IC50 in [11] was determined as 152 nM. In assay [9], the Ratio Ki was 3. The results for the Ki in [3], in [5] and in [6] were 6.21 nM, 60 nM and 71 nM, respectively.

Regarding `Cc1nc(N)c2nn(-c3ccccc3F)cc2n1`, the inhibition in [1] turned out to be 8%; in [4], 8%; in [7], 23%. In assay [5], this compound gave a Ki of 410 nM.

Regarding `Cn1cc2nc(CCCc3ccccc3)nc(N)c2n1`, the inhibition in assay [1] stood at 30%; in [2], 36%; in assay [4] it was 2%; in [7] it was 1%.

`Nc1nc(-c2cccs2)nc2cn(-c3ccccc3O)nc12`: the figures for the Ki in [3], in assay [5] and in assay [6] were 412 nM, 159 nM and 209 nM, respectively. In assay [4], the inhibition is 28%.

Consider `Nc1nc(-c2ccco2)nc2cn(Cc3ccccc3O)nc12`, for which the 50% inhibitory concentration (IC50) in assay [11] came to 112 nM. Further, the Ratio Ki in assay [9] came to 3. For the same compound, the Ki in assay [3] was 17 nM; in [5], 242 nM; in assay [6], 905 nM.

On to `Nc1nc(-c2ccco2)nc2cn(-c3ccccc3O)nc12`, for which the inhibition in assay [1] worked out at 36%; in assay [4], 42%. In addition, the Ki stood at 89 nM in assay [3] and 372 nM in assay [5].

Take `Nc1nc(CCCc2ccccc2)nc2cn(-c3ccccc3O)nc12`: the inhibition in assay [1] and in assay [4] was 5% each time. Also, the results for the Ki in [3] and in [5] were 240 nM and 17 nM, respectively.

For `COc1ccccc1-n1cc2nc(-c3cccs3)nc(N)c2n1`, the figures for the inhibition in assay [2], in assay [4] and in [7] were 24%, 1% and 27%, respectively. This compound yielded a Ki in [6] of 150 nM.

For `Nc1nc(-c2ccco2)nc2cn(Cc3ccccc3)nc12`, the inhibition in [1] was found to be 2%; in assay [2], 32%; in [4], 37%. In assay [3], this compound returned a Ki of 320 nM.

For the compound `Cn1cc2nc(Cc3ccccc3)nc(N)c2n1`, the inhibition came out at 1% in [1], 9% in assay [2], 20% in assay [4] and 1% in assay [7].

Regarding `Cc1nc(N)c2nn(Cc3ccccc3)cc2n1`, the inhibition in [1], in assay [2], in assay [4] and in [7] was 1% throughout.

For the compound `COc1ccccc1-n1cc2nc(CCCc3ccccc3)nc(N)c2n1`, the figures for the inhibition in assay [1] and in assay [4] were 6% and 21%, respectively. The values for the Ki in assay [3] and in assay [5] were 647 nM and 49 nM, respectively.

For the compound `Cc1ccc(-c2nc(N)c3nn(Cc4cccc(O)c4)cc3n2)o1`, in assay [11], the IC50 is 633 nM. The Ratio Ki in assay [9] amounted to 3. Also, the Ki in [3] came out at 14 nM; in assay [5], 65 nM; in assay [6], 225 nM.

As to `Cc1ccc(-c2nc(N)c3nn(Cc4cccc(F)c4)cc3n2)o1`, the IC50 in assay [11] amounted to 421 nM. For the same compound, the Ratio Ki in assay [9] came to 3. The Ki is 51 nM in [3], 252 nM in assay [5] and 427 nM in assay [6].

As for `Nc1nc(CCCc2ccccc2)nc2cn(-c3ccccc3F)nc12`, the inhibition worked out at 25% in assay [2], 1% in assay [4] and 43% in assay [7]. The same compound returned a Ki in assay [6] of 163 nM.

In the case of `Cc1ccc(-c2nc(N)c3nn(Cc4ccccc4F)cc3n2)o1`, in assay [11], the IC50 is 354 nM. The Ratio Ki in assay [9] turned out to be 3. In addition, the figures for the Ki in [3], in [5] and in assay [6] were 57 nM, 309 nM and 498 nM, respectively.

`Cc1ccc(-c2nc(N)c3nn(Cc4ccccc4O)cc3n2)o1`: the IC50 in assay [11] came out at 395 nM. For the same compound, the Ratio Ki in assay [9] was found to be 3. Also, the Ki in assay [3] was 38 nM; in assay [5], 111 nM; in assay [6] it was 122 nM.

Consider `COc1ccccc1-n1cc2nc(-c3ccc(C)o3)nc(N)c2n1`, for which the inhibition in assay [2] and in assay [4] was 1% each time. Moreover, the Ki in [3] stood at 518 nM; in assay [6] it was 297 nM.

As to `COc1ccccc1Cn1cc2nc(-c3ccc(C)o3)nc(N)c2n1`, the results for the half-maximal inhibitory concentration (IC50) in assay [8] and in assay [10] were 21 nM and 4.35 nM, respectively. For the same compound, the Ratio Ki in [9] is 3. In addition, the figures for the Ki in [3], in assay [5] and in [6] were 3.62 nM, 18 nM and 82 nM, respectively. Further, the inhibition in [4] is 30%.

Regarding `COc1ccccc1Cn1cc2nc(-c3ccco3)nc(N)c2n1`, the IC50 in assay [8] worked out at 106 nM; in assay [11] it was 512 nM; in assay [10], 6.21 nM. Further, the Ratio Ki in assay [9] worked out at 3. Also, the Ki in assay [3] is 5.37 nM; in [5], 98 nM; in assay [6], 196 nM.

As to `COc1ccccc1-n1cc2nc(Cc3ccccc3)nc(N)c2n1`, the Ki in assay [5] came to 103 nM; in assay [6], 405 nM. Also, the inhibition in assay [4] was 1%; in assay [7], 34%.

Take `Cc1ccc(-c2nc(N)c3nn(-c4ccccc4O)cc3n2)o1`: the inhibition in [2] and in assay [4] was 1% in each case. In addition, the Ki in [3] was 147 nM; in assay [6], 375 nM.

A word on the inhibition: it is the percentage by which the read-out fell short of the control. The Ki is a dissociation constant, usually derived from enzyme kinetics or from competition with a known ligand. Low values mean higher affinity, high ones lower affinity. By IC50 is commonly meant the concentration at which inhibition is half-maximal.
